Measurements: patent US20240207427A1, “SELECTIVE DRUG RELEASE FROM INTERNALIZED CONJUGATES OF BIOLOGICALLY ACTIVE COMPOUNDS” (priority 2021, published 2024)
Like-named read-outs stand apart in the source and are kept apart here.

Assays:
Type in all cases: cell-based
[1] = test system: B-lymphocyte cancer cells (SU-DHL4); experiment: In vitro potency (CellTiter-Glo, 96 h), SU-DHL-4; conditions: Homo sapiens, SU-DHL-4, 96 h
Outline: (§1)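 Authenticated lines (STR), used within 2 months of resuscitation, were seeded 24 h before treatment. Exposure to ADC dilutions lasted 96 h at 37 °C in RPMI 1640 with 20% FBS; viability was quantified luminescently.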

[2] = test system: renal carcinoma cells (786-O); experiment: In vitro potency (CellTiter-Glo, 96 h), 786-O; conditions: Homo sapiens, 786-0, 96 h
Outline: (§2)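 Cells in log-phase growth seeded 24 h in RPMI 1640 with 20% FBS, then exposed to serially diluted ADC or CPT free drug for 96 h at 37 °C. Growth inhibition read by CellTiter-Glo luminescence; IC50 reported in ng/mL or nmol/L.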

[3] = test system: multiple myeloma cells (MM.1R); experiment: In vitro potency (CellTiter-Glo, 96 h), MM.1R; conditions: camptothecin drugs, Table 13, CellTiter-Glo after 96 h exposure
Description: (§3) In vitro potency was assessed on multiple cancer cell lines. All cell lines were authenticated by STR profiling at IDEXX Bioresearch and cultured for no more than 2 months after resuscitation. Cells cultured in log-phase growth were seeded for 24 hours in 96-well plates containing […] RPMI 1640 supplemented with 20% FBS. Following addition of test articles, cells were incubated with test articles for 4 days at 37 0° C. After 96 hours, growth inhibition was assessed by CellTiterGlo® (Promega, Madison, WI) and luminescence was measured on a plate reader.
(§4) Cell viability was determined by CellTiter-Glo staining after 96 h exposure to the compound. ND=Not Determined. The cancer cell lines tested are renal carcinoma cells (786-0), melanoma cells (A2058), pancreatic cancer cells (BxPC3), non-small-cell lung cancer cells (Calu1), anaplastic large cell lymphoma cells (DEL, DELBVR, Karpas299), Hodgkin's lymphoma cells (L540cy), (Ls 174T), breast cancer cells (MDA-MB-231), acute myeloid leukemia cells (MOLM-13), B-lymphocyte cancer cells (SU-DHL4), multiple myeloma cells (MM.1R), (U266), and melanoma cells (SK-MEL-5).
as §3, with “FBS. Serial dilutions of antibody-drug conjugates in cell culture media were prepared at 4× working concentrations, and 50 μL of each dilution was added to the 96-well plates.” for “FBS.”, “37°” for “37 0°”
(§5) In vitro potency was assessed on multiple cancer cell lines. […] After 96 hours, growth inhibition was assessed by CellTiterGlo® (Promega, Madison, WI) and luminescence was measured on a plate reader.

[4] = test system: Hodgkin's lymphoma cells (L540cy); experiment: In vitro potency (CellTiter-Glo, 96 h), L540cy
Outline: as §2

[5] = test system: acute myeloid leukemia cells (MOLM-13); experiment: In vitro potency (CellTiter-Glo, 96 h), MOLM-13; conditions: Homo sapiens, MOLM-13, 96 h
Outline: (§6)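 Medium: RPMI 1640 + 20% FBS. Pre-seeding: 24 h. Treatment: ADC or CPT free drug serial dilutions, 96 h, 37 °C. Read-out: luminescence; IC50 in ng/mL and nmol/L.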

[6] = test system: pancreatic cancer cells (BxPC3); experiment: In vitro potency (CellTiter-Glo, 96 h), BxPC3; conditions: Homo sapiens, BXPC-3, 96 h
Outline: as §6

U266 cells = experiment: In vitro potency (CellTiter-Glo, 96 h), U266; conditions: Homo sapiens, U-266; camptothecin drugs, Table 13; CellTiter-Glo after 96 h exposure
Description: as §3, §4
as §3, with “FBS. Serial dilutions of antibody-drug conjugates in cell culture media were prepared at 4× working concentrations, and 50 μL of each dilution was added to the 96-well plates.” for “FBS.”, “37°” for “37 0°”
as §5

[7] = test system: melanoma cells (SK-MEL-5); experiment: In vitro potency (CellTiter-Glo, 96 h), SK-MEL-5; conditions: Homo sapiens, camptothecin drugs, Table 13, CellTiter-Glo after 96 h exposure
Description: as §3, §4
as §3, with “FBS. Serial dilutions of antibody-drug conjugates in cell culture media were prepared at 4× working concentrations, and 50 μL of each dilution was added to the 96-well plates.” for “FBS.”, “37°” for “37 0°”
as §5

[8] = test system: anaplastic large cell lymphoma cells (Karpas299); experiment: In vitro potency (CellTiter-Glo, 96 h), Karpas299; conditions: Homo sapiens, KARPAS-299, 96 h, CPT free drugs
Outline: as §2

[9] = test system: non-small-cell lung cancer cells (Calu1); experiment: In vitro potency (CellTiter-Glo, 96 h), Calu1; conditions: Homo sapiens, Calu-1, 96 h
Outline: as §1

[10] = test system: breast cancer cells (MDA-MB-231); experiment: In vitro potency (CellTiter-Glo, 96 h), MDA-MB-231; conditions: Homo sapiens, MDA-MB-231, 96 h, CPT free drugs
Outline: as §2

[11] = test system: anaplastic large cell lymphoma cells (DELBVR); experiment: In vitro potency (CellTiter-Glo, 96 h), DELBVR
Outline: as §2

[12] = test system: anaplastic large cell lymphoma cells (DEL); experiment: In vitro potency (CellTiter-Glo, 96 h), DEL
Outline: as §6

melanoma cells (A2058) = experiment: In vitro potency (CellTiter-Glo, 96 h), A2058; conditions: Homo sapiens, A2058, 96 h
Outline: as §1

Ls174T cells = experiment: In vitro potency (CellTiter-Glo, 96 h), Ls174T; conditions: Homo sapiens, LS174T, CPT free drugs
Outline: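 Log-phase cells were seeded for 24 h in RPMI 1640 with 20% FBS, then exposed to serially diluted antibody-drug conjugates or free camptothecin drug for 4 days at 37 °C. Growth inhibition was read by luminescence, and IC50 values were reported in ng/mL and nmol/L.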

[13] = Table 24, CellTiter-Glo after 96 h exposure, read-out: IC50 (nmol/L) Karpas299
[14] = CPT free drugs, Table 24, CellTiter-Glo after 96 h exposure, read-out: IC50 (nmol/L) Calu1
[15] = CPT free drugs, Table 24, CellTiter-Glo after 96 h exposure, read-out: IC50 (nmol/L) SU-DHL-4
[16] = Table 24, CellTiter-Glo after 96 h exposure, read-out: IC50 (nmol/L) MDAMB231
[17] = CPT free drugs, Table 24, CellTiter-Glo after 96 h exposure, read-out: IC50 (nmol/L) DELBVR
[18] = CPT free drugs, Table 24, CellTiter-Glo after 96 h exposure, read-out: IC50 (nmol/L) 786-O
[19] = CPT free drugs, Table 24, CellTiter-Glo after 96 h exposure, read-out: IC50 (nmol/L) L540cy
[20] = CPT free drugs, Table 24, CellTiter-Glo after 96 h exposure, read-out: IC50 (nmol/L) MOLM-13
[21] = CPT free drugs, Table 24, CellTiter-Glo after 96 h exposure, read-out: IC50 (nmol/L) BxPC3
[22] = CPT free drugs, Table 24, CellTiter-Glo after 96 h exposure, read-out: IC50 (nmol/L) DEL
[23] = CPT free drugs, Table 24, CellTiter-Glo after 96 h exposure, read-out: IC50 (nmol/L) A2058
[24] = Table 24, CellTiter-Glo after 96 h exposure, read-out: IC50 (nmol/L) Ls174T

Structure (SMILES)	IC50 [8, 13]	IC50 [9, 14]	IC50 [1, 15]	IC50 [10, 16]	IC50 [11, 17]	IC50 [2, 18]	IC50 [4, 19]	IC50 [5, 20]	IC50 [6, 21]	IC50 [12, 22]	IC50 (melanoma cells (A2058); [23])	IC50 (Ls174T cells; [24])	further results
CC[C@@]1(O)C(=O)OCc2c1cc1n(c2=O)Cc2c-1nc1cc3c(cc1c2CNc1cccc(N)c1)OCO3 [Compound 7ad]													IC50 ([1]; read-out: IC50 SU-DHL-4, camptothecin drugs, Table 13, CellTiter-Glo after 96 h exposure): 2 nmol/L; IC50 ([2]; read-out: IC50 786-O, camptothecin drugs, Table 13, CellTiter-Glo after 96 h exposure): 5 nmol/L; IC50 [3]: 2 nM; IC50 ([4]; read-out: IC50 L540cy, camptothecin drugs, Table 13, CellTiter-Glo after 96 h exposure): 2 nmol/L; IC50 ([5]; read-out: IC50 MOLM-13, camptothecin drugs, Table 13, CellTiter-Glo after 96 h exposure): 1 nmol/L; IC50 ([6]; read-out: IC50 BxPC3, camptothecin drugs, Table 13, CellTiter-Glo after 96 h exposure): 6 nmol/L; IC50 (U266 cells): 8 nM; IC50 [7]: 7 nM
CC[C@@]1(O)C(=O)OCc2c1cc1n(c2=O)Cc2c-1nc1cc(C)c(C)c(F)c1c2CN [Compound 2o]	37 nmol/L	409 nmol/L	18 nmol/L	37 nmol/L	16 nmol/L	66 nmol/L	20 nmol/L	349 nmol/L	> 1000 nmol/L	10 nmol/L	18 nmol/L	19.3 nmol/L	
CC[C@@]1(O)C(=O)OCc2c1cc1n(c2=O)Cc2c-1nc1cc(OC)c(OC)cc1c2CN [Compound 2ao, (19S)-10-(aminomethyl)-19-ethyl-19-hydroxy-6,7-dimethoxy-17-oxa-3,13-diazapentacyclo[11.8.0.02,11.04,9.015,20]henicosa-1(21),2,4(9),5,7,10,15 (20)-heptaene-14,18-dione]	> 1000 nmol/L	> 1000 nmol/L	> 1000 nmol/L	> 1000 nmol/L	> 1000 nmol/L	> 1000 nmol/L	> 1000 nmol/L	> 1000 nmol/L	> 1000 nmol/L	937 nmol/L	> 1000 nmol/L	> 1000 nmol/L	
CC[C@@]1(O)C(=O)OCc2c1cc1n(c2=O)Cc2c-1nc1cc(F)c(O)c(F)c1c2CN [Compound 3d]	> 1000 nmol/L	> 1000 nmol/L	> 1000 nmol/L	> 1000 nmol/L	> 1000 nmol/L	> 1000 nmol/L	> 1000 nmol/L	> 1000 nmol/L	> 1000 nmol/L	843 nmol/L	> 1000 nmol/L	> 1000 nmol/L	
CC[C@@]1(O)C(=O)OCc2c1cc1n(c2=O)Cc2c-1nc1cc(F)c(F)cc1c2CN [Compound 2l]	8 nmol/L	42 nmol/L	4 nmol/L	8 nmol/L	2.1 nmol/L	15 nmol/L	4 nmol/L	16 nmol/L	35 nmol/L	3.3 nmol/L	4 nmol/L	8.1 nmol/L	
CC[C@@]1(O)C(=O)OCc2c1cc1n(c2=O)Cc2c-1nc1cc(F)c(O)cc1c2CN [Compound 3b]	> 1000 nmol/L	> 1000 nmol/L	> 1000 nmol/L	> 1000 nmol/L	> 1000 nmol/L	> 1000 nmol/L	> 1000 nmol/L	> 1000 nmol/L	> 1000 nmol/L	> 1000 nmol/L	> 1000 nmol/L	> 1000 nmol/L	
CC[C@@]1(O)C(=O)OCc2c1cc1n(c2=O)Cc2c-1nc1ccc(Br)cc1c2CN [Compound 2e]	10.7 nmol/L	55 nmol/L	5.7 nmol/L	7.1 nmol/L	4 nmol/L	4.2 nmol/L	4.3 nmol/L	56 nmol/L	30.7 nmol/L	1 nmol/L	5 nmol/L	4.5 nmol/L	
CC[C@@]1(O)C(=O)OCc2c1cc1n(c2=O)Cc2c-1nc1cc(F)cc(F)c1c2CN [Compound 2ac]	8 nmol/L	68 nmol/L	4 nmol/L	51 nmol/L	3 nmol/L	9 nmol/L	4 nmol/L	17 nmol/L	16 nmol/L	2 nmol/L	3 nmol/L	7 nmol/L	
CCc1c(C)c(F)cc2nc3c(c(CN)c12)Cn1c-3cc2c(c1=O)COC(=O)[C@]2(O)CC [Compound 10, (S)-11-(aminomethyl)-4,10-diethyl-8-fluoro-4-hydroxy-9-methyl-1,12-dihydro-14H-pyrano[3′,4′:6,7]indolizino[1,2-b]quinoline-3,14(4H)-dione]													IC50 ([8]; read-out: Karpas299 IC50, Table 28, anaplastic large cell lymphoma cells Karpas299, 96 h, CellTiter-Glo): 57 nmol/L; IC50 ([9]; read-out: Calu1 IC50): 95 nmol/L; IC50 ([1]; read-out: SU-DHL-4 IC50, Table 28, CPT free drugs, B-lymphocyte cancer cells SU-DHL4, 96 h, CellTiter-Glo): 15 nmol/L; IC50 ([10]; read-out: MDAMB231 IC50, Table 28, breast cancer cells MDA-MB-231, 96 h, CellTiter-Glo): 59 nmol/L; IC50 ([11]; read-out: DELBVR IC50, Table 28, CPT free drugs, anaplastic large cell lymphoma cells DELBVR, CellTiter-Glo): 15 nmol/L; IC50 ([2]; read-out: 786-O IC50, Table 28, CPT free drugs, renal carcinoma cells 786-O, 96 h, CellTiter-Glo): 54 nmol/L; IC50 ([4]; read-out: L540cy IC50, Table 28, CPT free drugs, Hodgkin's lymphoma cells L540cy, CellTiter-Glo): 51 nmol/L; IC50 ([5]; read-out: MOLM-13 IC50, Table 28, CPT free drugs, acute myeloid leukemia cells MOLM-13, 96 h, CellTiter-Glo): 149 nmol/L; IC50 ([6]; read-out: BxPC3 IC50, Table 28, CPT free drugs, pancreatic cancer cells BxPC3, 96 h, CellTiter-Glo): 64 nmol/L; IC50 ([12]; read-out: DEL IC50, Table 28, CPT free drugs, anaplastic large cell lymphoma cells DEL, CellTiter-Glo): 7 nmol/L; IC50 (melanoma cells (A2058); read-out: A2058 IC50): 33 nmol/L; IC50 (Ls174T cells; 96 h, read-out: Ls174T IC50, Table 28, Ls174T cells, 96 h, CellTiter-Glo): 33 nmol/L
